± gives the expanded uncertainty stated by the source.
How the values were obtained:
[1] = refractive index (Na D-line) (dimensionless); xn = mol fraction of the nth substance listed; details: 100 kPa, Liquid, Standard Abbe refractometry
[2] = xn = mol fraction of the nth substance listed; details: 100 kPa, Liquid; for speed of sound: Frequency=3 MHz, Sing-around technique in a fixed-path interferometer; for mass density: Vibrating tube method

CCCCCCCCN1CCCC1=O [N-octyl-2-pyrrolidone] + CCCCn1cc[n+](C)c1.F[B-](F)(F)F
Details | mass density, [2] [kg/m3] | refractive index, [1] | speed of sound, [2] [m/s]
298.15 K, x2 = 0 | 918.45 ± 1 | 1.46346 ± 0.00086 | 1450.2 ± 6.1
298.15 K, x2 = 0.1084 | 945.54 ± 1 | 1.46095 ± 0.00086 | 1454.9 ± 6.1
298.15 K, x2 = 0.196 | 965.52 ± 1 | 1.45803 ± 0.00087 | 1457.4 ± 6.1
298.15 K, x2 = 0.3023 | 991.51 ± 1 | 1.45399 ± 0.00087 | 1461.3 ± 6.1
298.15 K, x2 = 0.4087 | 1020.1 ± 1 | 1.44986 ± 0.00087 | 1467.5 ± 6.1
298.15 K, x2 = 0.5064 | 1045.47 ± 1 | 1.44556 ± 0.00087 | 1474 ± 6.1
298.15 K, x2 = 0.6027 | 1074.31 ± 1 | 1.44155 ± 0.00087 | 1485.8 ± 6.1
298.15 K, x2 = 0.6981 | 1103.56 ± 1 | 1.43713 ± 0.00087 | 1499.9 ± 6.1
298.15 K, x2 = 0.7966 | 1133.07 ± 1 | 1.43209 ± 0.00087 | 1517.6 ± 6.1
298.15 K, x2 = 0.8978 | 1164.87 ± 1.1 | 1.42695 ± 0.00087 | 1539.8 ± 6.1
303.15 K, x2 = 0 | 914.8 ± 1 | 1.46152 ± 0.00086 | 1432.6 ± 6.1
303.15 K, x2 = 0.1084 | 941.91 ± 1 | 1.45882 ± 0.00086 | 1438.3 ± 6.1
303.15 K, x2 = 0.196 | 961.89 ± 1 | 1.45622 ± 0.00087 | 1441.3 ± 6.1
303.15 K, x2 = 0.3023 | 987.89 ± 1 | 1.45226 ± 0.00087 | 1445.3 ± 6.1
303.15 K, x2 = 0.4087 | 1016.54 ± 1 | 1.4482 ± 0.00087 | 1452.1 ± 6.1
303.15 K, x2 = 0.5064 | 1041.86 ± 1 | 1.44392 ± 0.00087 | 1459.2 ± 6.1
303.15 K, x2 = 0.6027 | 1070.71 ± 1 | 1.43996 ± 0.00087 | 1471.7 ± 6.1
303.15 K, x2 = 0.6981 | 1099.98 ± 1 | 1.43564 ± 0.00087 | 1486 ± 6.1
303.15 K, x2 = 0.7966 | 1129.48 ± 1 | 1.4307 ± 0.00087 | 1504.5 ± 6.1
303.15 K, x2 = 0.8978 | 1161.29 ± 1.1 | 1.42526 ± 0.00087 | 1527.3 ± 6.1
308.15 K, x2 = 0 | 911.14 ± 1 | 1.45955 ± 0.00086 | 1415.3 ± 6.1
308.15 K, x2 = 0.1084 | 938.28 ± 1 | 1.45675 ± 0.00086 | 1421.6 ± 6.1
308.15 K, x2 = 0.196 | 958.26 ± 1 | 1.45433 ± 0.00087 | 1424.9 ± 6.1
308.15 K, x2 = 0.3023 | 984.27 ± 1 | 1.45051 ± 0.00087 | 1429.4 ± 6.1
308.15 K, x2 = 0.4087 | 1012.96 ± 1 | 1.44653 ± 0.00087 | 1436.8 ± 6.1
308.15 K, x2 = 0.5064 | 1038.25 ± 1 | 1.4423 ± 0.00087 | 1444.4 ± 6.1
308.15 K, x2 = 0.6027 | 1067.16 ± 1 | 1.43842 ± 0.00087 | 1457.4 ± 6.1
308.15 K, x2 = 0.6981 | 1096.42 ± 1 | 1.43416 ± 0.00087 | 1472.3 ± 6.1
308.15 K, x2 = 0.7966 | 1125.91 ± 1 | 1.42923 ± 0.00087 | 1491.4 ± 6.1
308.15 K, x2 = 0.8978 | 1157.71 ± 1.1 | 1.42379 ± 0.00087 | 1514.9 ± 6.1
313.15 K, x2 = 0 | 907.49 ± 1 | 1.45761 ± 0.00086 | 1398 ± 6.1
313.15 K, x2 = 0.1084 | 934.64 ± 1 | 1.45482 ± 0.00086 | 1405 ± 6.1
313.15 K, x2 = 0.196 | 954.63 ± 1 | 1.45243 ± 0.00087 | 1408.7 ± 6.1
313.15 K, x2 = 0.3023 | 980.66 ± 1 | 1.44871 ± 0.00087 | 1413.7 ± 6.1
313.15 K, x2 = 0.4087 | 1009.39 ± 1 | 1.44484 ± 0.00087 | 1421.6 ± 6.1
313.15 K, x2 = 0.5064 | 1034.65 ± 1 | 1.44059 ± 0.00087 | 1429.7 ± 6.1
313.15 K, x2 = 0.6027 | 1063.63 ± 1 | 1.43681 ± 0.00087 | 1443.3 ± 6.1
313.15 K, x2 = 0.6981 | 1092.9 ± 1 | 1.43266 ± 0.00087 | 1458.8 ± 6.1
313.15 K, x2 = 0.7966 | 1122.36 ± 1 | 1.42777 ± 0.00087 | 1478.6 ± 6.1
313.15 K, x2 = 0.8978 | 1154.16 ± 1.1 | 1.4223 ± 0.00087 | 1502.7 ± 6.1
318.15 K, x2 = 0 | 903.83 ± 1 | 1.45564 ± 0.00086 | 1380.9 ± 6.1
318.15 K, x2 = 0.1084 | 931.01 ± 1 | 1.45292 ± 0.00086 | 1388.6 ± 6.1
318.15 K, x2 = 0.196 | 951.01 ± 1 | 1.45054 ± 0.00087 | 1392.7 ± 6.1
318.15 K, x2 = 0.3023 | 977.05 ± 1 | 1.44692 ± 0.00087 | 1398.2 ± 6.1
318.15 K, x2 = 0.4087 | 1005.86 ± 1 | 1.44312 ± 0.00087 | 1406.6 ± 6.1
318.15 K, x2 = 0.5064 | 1031.07 ± 1 | 1.43894 ± 0.00087 | 1415.2 ± 6.1
318.15 K, x2 = 0.6027 | 1060.13 ± 1 | 1.43513 ± 0.00087 | 1429.4 ± 6.1
318.15 K, x2 = 0.6981 | 1089.38 ± 1 | 1.43111 ± 0.00087 | 1445.5 ± 6.1
318.15 K, x2 = 0.7966 | 1118.83 ± 1 | 1.4263 ± 0.00087 | 1465.9 ± 6.1
318.15 K, x2 = 0.8978 | 1150.62 ± 1.1 | 1.4208 ± 0.00087 | 1490.6 ± 6.1
323.15 K, x2 = 0 | 900.17 ± 1 | 1.45367 ± 0.00086 | 1364 ± 6.1
323.15 K, x2 = 0.1084 | 927.39 ± 1 | 1.45088 ± 0.00086 | 1372.3 ± 6.1
323.15 K, x2 = 0.196 | 947.4 ± 1 | 1.44862 ± 0.00087 | 1376.7 ± 6.1
323.15 K, x2 = 0.3023 | 973.44 ± 1 | 1.44512 ± 0.00087 | 1382.7 ± 6.1
323.15 K, x2 = 0.4087 | 1002.29 ± 1 | 1.44146 ± 0.00087 | 1391.8 ± 6.1
323.15 K, x2 = 0.5064 | 1027.48 ± 1 | 1.43731 ± 0.00087 | 1400.8 ± 6.1
323.15 K, x2 = 0.6027 | 1056.67 ± 1 | 1.43346 ± 0.00087 | 1415.6 ± 6.1
323.15 K, x2 = 0.6981 | 1085.86 ± 1 | 1.42954 ± 0.00087 | 1432.2 ± 6.1
323.15 K, x2 = 0.7966 | 1115.32 ± 1 | 1.42478 ± 0.00087 | 1453.3 ± 6.1
323.15 K, x2 = 0.8978 | 1147.1 ± 1.1 | 1.41935 ± 0.00087 | 1478.6 ± 6.1

From the NIST ThermoML archive (doi:10.1016/j.jct.2015.06.005)
